What all share (format): functional
Assay [1] concerns A549. Put plainly: Antiproliferative activity against human A549 cells after 48 hrs by SRB assay. Conditions: A549, 48 h.
Assay [2] has as its system HeLa. Put plainly: Antiproliferative activity against human HeLa cells after 48 hrs by SRB assay. For orientation: Sulforhodamine B stains cellular protein and so reports cell mass.
In assay [3] the test system is MDA-MB-231. Put plainly: Antiproliferative activity against human MDA-MB-231 cells after 48 hrs by SRB assay. Conditions: MDA-MB-231, 48 h.
The nature of assay [4]: Antiproliferative activity against human PANC1 cells after 48 hrs by SRB assay. The settings on record: PANC-1, 48 h.

Some results are limits rather than exact numbers.

In the case of `Cc1cc2c(cc1C)C(Cl)=C(c1nnc(-c3ccc(F)cc3)o1)CCC2`, the GI50 in assay [1] is 2.81 µM; in assay [2] it was 6.42 µM; in assay [3], 1.4 µM; in assay [4], 0.52 µM.

For the molecule `Cc1cc2c(cc1C)C(Cl)=C(c1nnc(-c3cccc(Cl)c3)o1)CCC2`, the GI50 stood at 1.97 µM in assay [1], 5.94 µM in assay [2], 3.31 µM in assay [3] and 4.57 µM in assay [4].

Turning to `Cc1cc2c(cc1C)C(Cl)=C(c1nnc(-c3cccc(I)c3)o1)CCC2`, the GI50 turned out to be 2.78 µM in assay [1], 4.46 µM in assay [2], 2.67 µM in assay [3] and 4.12 µM in assay [4].

Take `Cc1cc2c(cc1C)C(Cl)=C(c1nnc(-c3cccc(C(F)(F)F)c3)o1)CCC2`: the GI50 is 1.97 µM in assay [1], 1.57 µM in assay [2], 2.46 µM in assay [3] and 0.794 µM in assay [4].

For `Cc1cc2c(cc1C)C(Cl)=C(c1nnc(-c3ccccc3)o1)CCC2`, the GI50 in assay [1] was found to be 1.96 µM; in assay [2], 4.67 µM; in assay [3], 2.76 µM; in assay [4], 4.12 µM.

For the molecule `Cc1ccc(-c2nnc(C3=C(Cl)c4cc(C)c(C)cc4CCC3)o2)cc1`, the GI50 in assay [1] stood at 2.47 µM; in assay [2], 0.679 µM; in assay [3], 1.76 µM; in assay [4], 3.88 µM.

Consider `COc1cc(-c2nnc(C3=C(Cl)c4cc(C)c(C)cc4CCC3)o2)cc(OC)c1OC`, for which the GI50 is 1.26 µM in assay [1], 0.562 µM in assay [2], 0.956 µM in assay [3] and 1.88 µM in assay [4].

Take `COc1ccc([N+](=O)[O-])c(-c2nnc(C3=C(Cl)c4cc(C)c(C)cc4CCC3)o2)c1OC`: the GI50 in assay [1] is 0.871 µM; in assay [2], 0.31 µM; in assay [3] it was 1.16 µM; in assay [4], 0.957 µM.

For the molecule `Cc1ccc(-c2nnc(C3=C(Cl)c4ccccc4CCC3)o2)cc1`, the GI50 in assay [1] worked out at 3.42 µM; in assay [2] it was 0.079 µM; in assay [3] it was 1.4 µM; in assay [4], 6.81 µM.

With `COc1cc(-c2nnc(C3=C(Cl)c4ccccc4CCC3)o2)cc(OC)c1OC`, the GI50 worked out at 4.57 µM in assay [1], 1.73 µM in assay [2], 3.32 µM in assay [3] and 0.729 µM in assay [4].

`O=[N+]([O-])c1ccc(-c2nnc(C3=C(Cl)c4ccccc4CCC3)o2)cc1`: the concentration for 50% growth inhibition (GI50) in assay [1] was 2.61 µM; in assay [2], 1.32 µM; in assay [3], 3.28 µM; in assay [4], 3.98 µM.

Regarding `COc1ccc([N+](=O)[O-])c(-c2nnc(C3=C(Cl)c4ccccc4CCC3)o2)c1OC`, the GI50 in assay [1] is 5.36 µM; in assay [2], 2.83 µM; in assay [3], 8.28 µM; in assay [4] it was 7.23 µM.

Turning to `ClC1=C(c2nnc(-c3cccc(I)c3)o2)CCCc2ccccc21`, the GI50 amounted to 2.56 µM in assay [1], 4.1 µM in assay [2], 4.94 µM in assay [3] and 2.37 µM in assay [4].

On to `Cc1cc2c(cc1C)C(Cl)=C(c1nnc(Nc3ccccc3)s1)CCC2`, for which the GI50 stood at 4.78 µM in assay [1], 4.92 µM in assay [2], 5.78 µM in assay [3] and 3.67 µM in assay [4].

For the molecule `S=c1[nH]nc(C2=C(Cl)c3ccccc3CCC2)o1`, the GI50 in assay [1] is 4.96 µM; in assay [2], 0.981 µM; in assay [3], 1.01 µM; in assay [4], 3.43 µM.

With `Cc1cc2c(cc1C)C(Cl)=C(c1n[nH]c(=S)o1)CCC2`, the GI50 is 3.27 µM in assay [1], 4.44 µM in assay [2], 0.918 µM in assay [3] and 2.46 µM in assay [4].

`ClC1=C(c2nnc(-c3ccccc3)o2)CCCc2ccccc21`: the concentration for 50% growth inhibition (GI50) is 2.27 µM in assay [1], 3.22 µM in assay [2], 1.97 µM in assay [3] and 0.675 µM in assay [4].

For `O=C(NNC(=S)Nc1ccccc1)C1=C(Cl)c2ccccc2CCC1`, the GI50 in assay [1] was found to be 4.88 µM; in assay [2] it was 3.87 µM; in assay [3], 2.46 µM; in assay [4], 5.85 µM.

Turning to `Cc1cc2c(cc1C)C(Cl)=C(C(=O)NNC(=S)Nc1ccccc1)CCC2`, the GI50 worked out at 0.759 µM in assay [1], 0.471 µM in assay [2], 3.14 µM in assay [3] and 0.928 µM in assay [4].

As for `Sc1nnc(C2=C(Cl)c3ccccc3CCC2)n1-c1ccccc1`, the GI50 was found to be 3.49 µM in assay [1], 5.5 µM in assay [2], 4.93 µM in assay [3] and 3.51 µM in assay [4].

In the case of `Cc1cc2c(cc1C)C(Cl)=C(c1nnc(S)n1-c1ccccc1)CCC2`, the GI50 in assay [1] turned out to be 1.49 µM; in assay [2], 1.16 µM; in assay [3], 2.64 µM; in assay [4] it was 2.65 µM.

For `ClC1=C(c2nnc(Nc3ccccc3)s2)CCCc2ccccc21`, the GI50 stood at 2.35 µM in assay [1], 1.32 µM in assay [2], 0.947 µM in assay [3] and 0.158 µM in assay [4].

As to `COc1cc2c(c(OC)c1OC)-c1ccc(OC)c(=O)cc1[C@@H](NC(C)=O)CC2` [COLCHICINE], the GI50 is 0.03 µM in assay [1], 0.04 µM in assay [2], less than 0.01 µM in assay [3] and 0.01 µM in assay [4].

As for `COc1ccc(C[C@@H](O)c2cc(OC)c(OC)c(OC)c2)cc1O` [COMBRETASTATIN], the GI50 in assay [1] is 0.01 µM; in assay [2], 0.01 µM; in assay [3] it was 0.019 µM; in assay [4], 0.02 µM.

With `COc1cccc2c1C(=O)c1c(O)c3c(c(O)c1C2=O)C[C@@](O)(C(=O)CO)C[C@@H]3O[C@H]1C[C@H](N)[C@H](O)[C@H](C)O1` [DOXORUBICIN], the GI50 in assay [1] was less than 0.01 µM; in assay [2], less than 0.01 µM; in assay [3], 0.02 µM; in assay [4], less than 0.01 µM.

On to `COC(=O)Nc1nc2cc(C(=O)c3cccs3)ccc2[nH]1` [NOCODAZOLE], for which the GI50 in assay [1] was 0.02 µM; in assay [2], 0.015 µM; in assay [3] it was 0.017 µM; in assay [4] it was less than 0.01 µM.

For the molecule `CC(=O)O[C@H]1C(=O)[C@@]2(C)[C@H]([C@H](OC(=O)c3ccccc3)[C@]3(O)C[C@H](OC(=O)[C@H](O)[C@@H](NC(=O)c4ccccc4)c4ccccc4)C(C)=C1C3(C)C)[C@]1(OC(C)=O)CO[C@@H]1C[C@@H]2O` [PACLITAXEL], the GI50 is less than 0.01 µM in assay [1], 0.02 µM in assay [2], less than 0.01 µM in assay [3] and 0.012 µM in assay [4].

A word on the GI50: it is the concentration giving 50% growth inhibition. A lower GI50 goes with more potent growth inhibition.

Source of the values: ChEMBL document CHEMBL3400038, “Synthesis and evaluation of benzosuberone embedded with 1,3,4-oxadiazole, 1,3,4-thiadiazole and 1,2,4-triazole moieties as new potential anti proliferative agents” (2015).
